Assay results taken from PMC10915170, “New oxadiazole and pyrazoline derivatives as anti-proliferative agents targeting EGFR-TK: design, synthesis, biological evaluation and molecular docking study” (Scientific Reports, 2024).
Where “and” joins values, the source holds several entries; their conditions need not be identical. Identical values can stand only once. Entries after “also recorded” stand apart in the source; their conditions may differ. Like-named read-outs stand apart in the source and are kept apart here.

Key:
HCT116 = test: MTT anti-proliferative assay, HCT116; assay type: cell-based; conditions: Homo sapiens, HCT-116, mean ± SD of three independent experiments
Method: (§1) Doxorubicin (DOX) was used as a reference drug.
(§2) Cell lines were obtained from ATCC via Holding company for biological products and vaccines (VACSERA), Cairo, Egypt. Doxorubicin (Dox.) is used as a standard anticancer drug. This colorimetric assay is based on the conversion of yellow (MTT) to a purple formazan derivative by mitochondrial succinate dehydrogenase in viable cells. This colorimetric assay was performed according to the reported method[36],[37].

MCF7 = test: MTT anti-proliferative assay, MCF7; assay type: cell-based; conditions: Homo sapiens, mean ± SD of three independent experiments
Method: as §1, §2

HePG-2 = test: MTT anti-proliferative assay, HepG-2; conditions: Homo sapiens, HepG2, read-out: IC50 HePG-2
WI-38 = test: MTT cytotoxicity against normal fibroblast cells WI-38; conditions: Homo sapiens, WI-38, read-out: IC50 WI-38
EGFR = conditions: cited from earlier work
MCF-7 = conditions: cited from earlier work
HepG-2 cells [1] = test: Intracellular ROS accumulation assay (ELISA); assay type: cell-based, human; conditions: for ROS: HepG-2, mean ± SD of three experiments, control 105.6 ± 10.8
Excerpt: Under both physiological and pathological circumstances, reactive oxygen species (ROS) such H2O2 and superoxides play a significant role in the activation of apoptosis. It's interesting to note that mitochondria both produce and absorb ROS.
Intracellular reactive oxygen species (ROS) were detected by the EIAab ROS ELISA kit according to the reported method.

EGFR-TK = EGFR-TK (Homo sapiens, UniProt P00533); test: EGFR-TK inhibition assay
Sequence of EGFR-TK (P00533 25-1210): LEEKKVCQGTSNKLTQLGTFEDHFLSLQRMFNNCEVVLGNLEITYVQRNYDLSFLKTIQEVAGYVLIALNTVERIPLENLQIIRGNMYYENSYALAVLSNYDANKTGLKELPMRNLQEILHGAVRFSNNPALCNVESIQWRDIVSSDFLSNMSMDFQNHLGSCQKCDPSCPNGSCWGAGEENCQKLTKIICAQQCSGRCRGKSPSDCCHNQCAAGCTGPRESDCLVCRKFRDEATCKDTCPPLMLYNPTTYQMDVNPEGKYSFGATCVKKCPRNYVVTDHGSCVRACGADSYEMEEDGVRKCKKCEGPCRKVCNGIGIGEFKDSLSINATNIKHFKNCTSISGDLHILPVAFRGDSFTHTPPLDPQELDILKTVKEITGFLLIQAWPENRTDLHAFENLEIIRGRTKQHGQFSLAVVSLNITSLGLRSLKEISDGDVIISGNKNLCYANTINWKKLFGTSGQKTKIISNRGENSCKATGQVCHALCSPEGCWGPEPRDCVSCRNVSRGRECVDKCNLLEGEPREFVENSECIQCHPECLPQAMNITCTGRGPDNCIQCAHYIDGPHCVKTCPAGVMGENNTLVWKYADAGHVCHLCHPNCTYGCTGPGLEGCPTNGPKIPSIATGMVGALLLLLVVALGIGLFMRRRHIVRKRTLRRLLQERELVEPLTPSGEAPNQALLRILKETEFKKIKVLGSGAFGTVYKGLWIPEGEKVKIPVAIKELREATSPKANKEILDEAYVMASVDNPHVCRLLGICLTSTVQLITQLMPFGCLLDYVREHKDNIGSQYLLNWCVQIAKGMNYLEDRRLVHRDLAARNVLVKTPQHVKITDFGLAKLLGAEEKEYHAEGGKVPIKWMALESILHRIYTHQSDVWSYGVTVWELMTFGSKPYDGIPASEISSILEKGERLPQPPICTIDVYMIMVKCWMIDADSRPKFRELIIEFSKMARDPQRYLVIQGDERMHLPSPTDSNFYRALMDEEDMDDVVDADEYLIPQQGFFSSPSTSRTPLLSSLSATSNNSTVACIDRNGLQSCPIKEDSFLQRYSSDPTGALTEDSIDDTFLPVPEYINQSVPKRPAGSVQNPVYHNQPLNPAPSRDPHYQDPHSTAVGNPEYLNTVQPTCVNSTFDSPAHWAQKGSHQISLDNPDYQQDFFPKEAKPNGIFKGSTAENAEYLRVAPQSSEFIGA

HCT116, HepG-2 and MCF7 = test: MTT assay, all three cancer cell lines (summary range); conditions: Homo sapiens, read-out: IC50 range against all cancer cell lines
HepG-2 cells [2] = test: Cell cycle analysis by PI flow cytometry; assay type: cell-based, human
Method: Cell cycle analysis for compound 5a was performed using the HepG-2 cell lines stained with propidium iodide (PI) and FACSCalibur flow cytometer as mentioned in previous reports.

HepG-2 cells [3] = test: Annexin V-FITC/Propidium iodide dual staining apoptosis assay; assay type: cell-based, human; conditions: HepG-2, 24 h
Method: Liver HepG-2 cancer cells were used in the Annexin V-FITC/Propidium iodide dual staining assay[40] to calculate the percentage of apoptosis induced by compound 5a. As shown in Figs. 6 and Fig. 7, compound 5a induces the early apoptosis in HepG-2 after 24 h incubation by (19.61%) 41.72 folds over the untreated cells (0.47%). Also, it enhances the late apoptotic induction by 11.89% compared to untreated control (0.16%). Cumulatively, compound 5a induced total apoptosis (35.28%) 14.57 folds over the untreated cells (2.42%).
Apoptosis induction for 5a was performed using the HepG-2 cell lines and well-established Annexin 5-FITC/PI detection kit similar to the reported procedures.

[4] = test system: BAX, BCL-2, Cyto c, Casp. 6, 7, 9 and Survivin in HepG-2 cells; test: RT-PCR gene expression of apoptotic markers; assay type: cell-based, human; conditions: HepG-2, control = 1
Excerpt: The B cell lymphoma-2 (Bcl-2) family of proteins, which includes pro-apoptotic (Bax, Bak, Bid, and Bad) and anti-apoptotic (Bcl-2, Bcl-xL, and Bcl-w) proteins, mediates the mitochondrial or intrinsic apoptosis pathway. These proteins cause apoptosis by influencing the permeability of the mitochondrial membrane, which results in the release of cytochrome c into the cytosol. The Bax/Bcl-2 ratio is frequently employed as a marker of cell death and is essential for controlling mitochondrial cytochrome c release. It is thought that caspases perform critical functions in modulating the mitochondrial pathway. After cytochrome c is released into the cytosol, caspase-9 is triggered. Caspase-9 can activate effector caspases, such as caspase-3, 6 and 7, which cause cells to enter apoptosis. The various target proteins that the effector caspases cleave are widely dispersed throughout the cell, which causes the morphological modifications that are indicative of apoptosis. Apoptosis is inhibited by the anti-apoptotic protein survivin, which regulates the actions of caspase-9 and effector caspases.
Gene expression analysis was performed by using (iScriptTM OneStep RT-PCR Kit with SYBR® Green) from Bio-Rad according to reported procedure.

HER2 = HER2 (Homo sapiens, UniProt P04626); test: HER2 inhibition assay
Sequence of HER2 (P04626 23-1255): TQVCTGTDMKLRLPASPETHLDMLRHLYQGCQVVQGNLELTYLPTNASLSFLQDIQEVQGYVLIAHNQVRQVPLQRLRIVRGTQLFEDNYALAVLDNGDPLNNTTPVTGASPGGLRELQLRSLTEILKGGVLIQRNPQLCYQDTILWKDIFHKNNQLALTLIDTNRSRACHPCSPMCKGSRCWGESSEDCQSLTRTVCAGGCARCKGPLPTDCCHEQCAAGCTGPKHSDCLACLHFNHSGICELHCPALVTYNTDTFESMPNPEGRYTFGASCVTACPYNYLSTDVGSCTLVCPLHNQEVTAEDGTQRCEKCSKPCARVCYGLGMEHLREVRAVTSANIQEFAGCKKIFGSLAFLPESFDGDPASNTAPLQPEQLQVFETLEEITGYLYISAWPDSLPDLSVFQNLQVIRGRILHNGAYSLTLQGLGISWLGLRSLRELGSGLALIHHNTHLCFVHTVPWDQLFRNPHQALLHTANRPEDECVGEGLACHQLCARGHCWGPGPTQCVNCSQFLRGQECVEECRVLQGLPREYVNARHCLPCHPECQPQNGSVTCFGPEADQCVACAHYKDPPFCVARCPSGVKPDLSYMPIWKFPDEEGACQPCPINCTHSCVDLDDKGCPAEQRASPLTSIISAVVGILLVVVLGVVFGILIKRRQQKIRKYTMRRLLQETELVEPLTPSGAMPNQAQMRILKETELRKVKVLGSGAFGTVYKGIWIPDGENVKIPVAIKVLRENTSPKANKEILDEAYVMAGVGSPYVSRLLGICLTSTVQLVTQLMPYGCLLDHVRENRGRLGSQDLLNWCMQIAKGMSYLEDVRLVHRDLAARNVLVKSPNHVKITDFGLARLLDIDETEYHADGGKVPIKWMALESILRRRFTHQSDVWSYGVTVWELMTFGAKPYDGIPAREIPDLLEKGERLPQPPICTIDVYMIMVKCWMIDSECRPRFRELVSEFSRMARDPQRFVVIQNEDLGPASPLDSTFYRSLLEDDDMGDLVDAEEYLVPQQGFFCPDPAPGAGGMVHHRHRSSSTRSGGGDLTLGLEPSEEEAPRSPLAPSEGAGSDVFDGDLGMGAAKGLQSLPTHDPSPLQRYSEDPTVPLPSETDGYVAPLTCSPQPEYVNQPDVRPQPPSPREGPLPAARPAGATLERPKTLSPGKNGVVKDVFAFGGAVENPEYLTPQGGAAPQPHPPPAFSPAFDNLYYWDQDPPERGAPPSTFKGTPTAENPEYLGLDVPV

HER3 = HER3 (Homo sapiens, UniProt P21860); test: HER3 inhibition assay
Sequence of HER3 (P21860 20-1342): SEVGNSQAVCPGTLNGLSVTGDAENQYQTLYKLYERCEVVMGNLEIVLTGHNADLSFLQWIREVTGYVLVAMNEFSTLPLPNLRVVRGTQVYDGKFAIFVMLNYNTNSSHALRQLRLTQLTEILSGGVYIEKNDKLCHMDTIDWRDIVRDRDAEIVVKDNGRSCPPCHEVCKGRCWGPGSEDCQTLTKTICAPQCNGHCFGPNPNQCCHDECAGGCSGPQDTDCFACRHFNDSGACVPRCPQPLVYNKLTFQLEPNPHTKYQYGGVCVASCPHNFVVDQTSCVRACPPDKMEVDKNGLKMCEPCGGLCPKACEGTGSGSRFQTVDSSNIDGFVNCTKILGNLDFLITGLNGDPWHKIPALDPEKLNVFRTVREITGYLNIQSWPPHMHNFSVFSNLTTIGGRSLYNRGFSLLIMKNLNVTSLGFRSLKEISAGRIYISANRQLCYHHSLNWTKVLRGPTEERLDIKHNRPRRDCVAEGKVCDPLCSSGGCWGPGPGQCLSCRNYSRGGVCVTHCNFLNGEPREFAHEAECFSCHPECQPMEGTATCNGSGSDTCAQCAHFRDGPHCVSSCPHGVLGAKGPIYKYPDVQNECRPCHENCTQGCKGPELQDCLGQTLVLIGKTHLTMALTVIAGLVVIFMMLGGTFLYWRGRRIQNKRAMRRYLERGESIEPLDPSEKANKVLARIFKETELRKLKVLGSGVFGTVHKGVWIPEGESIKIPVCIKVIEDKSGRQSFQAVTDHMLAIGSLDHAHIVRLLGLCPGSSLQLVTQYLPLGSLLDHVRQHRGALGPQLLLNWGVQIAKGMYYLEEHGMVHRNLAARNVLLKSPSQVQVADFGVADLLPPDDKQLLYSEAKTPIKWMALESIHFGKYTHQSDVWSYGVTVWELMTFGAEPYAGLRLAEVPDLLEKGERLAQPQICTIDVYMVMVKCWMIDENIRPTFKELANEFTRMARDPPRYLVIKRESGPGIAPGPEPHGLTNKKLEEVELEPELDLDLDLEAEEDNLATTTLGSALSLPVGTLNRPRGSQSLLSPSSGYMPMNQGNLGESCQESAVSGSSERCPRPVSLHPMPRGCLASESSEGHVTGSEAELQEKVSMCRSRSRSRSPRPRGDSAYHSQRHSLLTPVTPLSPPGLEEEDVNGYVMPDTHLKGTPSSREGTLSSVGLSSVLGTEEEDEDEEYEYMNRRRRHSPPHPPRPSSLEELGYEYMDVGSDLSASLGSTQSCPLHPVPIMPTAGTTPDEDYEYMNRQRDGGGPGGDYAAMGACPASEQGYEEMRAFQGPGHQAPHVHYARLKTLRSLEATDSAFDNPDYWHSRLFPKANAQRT

HER4 = HER4 (Homo sapiens, UniProt Q15303); test: HER4 inhibition assay
Sequence of HER4 (Q15303 26-1308): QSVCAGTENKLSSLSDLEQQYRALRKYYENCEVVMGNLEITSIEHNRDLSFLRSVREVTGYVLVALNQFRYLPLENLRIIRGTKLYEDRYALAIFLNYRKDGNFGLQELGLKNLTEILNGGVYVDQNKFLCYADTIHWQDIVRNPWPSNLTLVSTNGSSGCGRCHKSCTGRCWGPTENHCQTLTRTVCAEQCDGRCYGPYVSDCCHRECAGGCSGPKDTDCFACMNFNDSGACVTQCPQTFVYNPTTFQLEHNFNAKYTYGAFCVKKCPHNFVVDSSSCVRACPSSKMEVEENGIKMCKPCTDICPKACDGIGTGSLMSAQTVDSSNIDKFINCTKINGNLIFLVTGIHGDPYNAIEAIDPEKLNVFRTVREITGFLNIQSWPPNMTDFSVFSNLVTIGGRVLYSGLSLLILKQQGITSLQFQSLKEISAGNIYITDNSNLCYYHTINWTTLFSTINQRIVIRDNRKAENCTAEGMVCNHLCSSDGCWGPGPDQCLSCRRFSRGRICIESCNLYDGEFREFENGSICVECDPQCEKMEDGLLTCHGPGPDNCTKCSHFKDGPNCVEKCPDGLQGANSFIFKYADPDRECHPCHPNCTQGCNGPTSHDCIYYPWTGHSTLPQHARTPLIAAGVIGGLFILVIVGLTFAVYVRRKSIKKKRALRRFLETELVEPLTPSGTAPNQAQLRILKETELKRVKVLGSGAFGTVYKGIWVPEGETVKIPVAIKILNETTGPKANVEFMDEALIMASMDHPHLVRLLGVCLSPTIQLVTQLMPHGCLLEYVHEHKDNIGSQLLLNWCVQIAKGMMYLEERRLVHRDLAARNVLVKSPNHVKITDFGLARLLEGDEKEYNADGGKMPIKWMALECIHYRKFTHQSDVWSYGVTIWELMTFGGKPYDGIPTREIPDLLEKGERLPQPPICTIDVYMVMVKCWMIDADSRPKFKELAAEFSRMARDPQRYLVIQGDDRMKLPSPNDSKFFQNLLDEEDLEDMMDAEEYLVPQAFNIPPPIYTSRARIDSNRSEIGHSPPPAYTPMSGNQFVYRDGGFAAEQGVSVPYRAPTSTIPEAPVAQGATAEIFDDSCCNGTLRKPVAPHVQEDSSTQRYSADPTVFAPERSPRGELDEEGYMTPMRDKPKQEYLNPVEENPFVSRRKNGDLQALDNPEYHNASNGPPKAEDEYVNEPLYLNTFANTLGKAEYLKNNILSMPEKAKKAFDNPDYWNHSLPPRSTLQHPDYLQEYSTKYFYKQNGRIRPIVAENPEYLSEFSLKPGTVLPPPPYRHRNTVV

c1ccc(COc2ccc(-c3nnc(SC4CCCCCC4)o3)cc2)cc1 [Compound 5d, 2-(4-(Benzyloxy)phenyl)-5-(cycloheptylthio)-1,3,4-oxadiazole]
IC50 (HCT116): 88.6 ± 4.8 µM | IC50 (MCF7): > 100 µM | melting point: 83 to 85 °C | IC50 (HePG-2): 82.8 ± 4.5 µM | IC50 (WI-38): 46.6 ± 2.7 µM

Cc1ccc(CSc2nnc(-c3ccc(OCc4ccccc4)cc3)o2)cc1 [Compound 5c, 2-(4-(Benzyloxy)phenyl)-5-((4-methylbenzyl)thio)-1,3,4-oxadiazole]
IC50 (HCT116): 79.8 ± 4.4 µM | IC50 (MCF7): 92.2 ± 4.9 µM | melting point: 130 to 132 °C | IC50 (HePG-2): 71.4 ± 3.9 µM | IC50 (WI-38): > 100 µM

NC(=O)N1N=C(c2ccncc2)CC1c1cn(-c2ccccc2)nc1-c1ccc(OCc2ccccc2)cc1 (stereo not shown) [VI]
IC50 (EGFR): 3.65 µM

Nc1cc(-c2nnc(SCC(=O)c3ccccc3)o2)ccn1 [I]
IC50 (MCF-7): 0.01 µM

COc1ccc(C2=NN(C(C)=O)C(/C=C/c3ccccc3)C2)cc1 (stereo not shown) [IV]
IC50 (MCF-7): 4.33 µM | IC50 (EGFR): 0.46 µM

c1ccc(COc2ccc(-c3nnc(SC4CCCC4)o3)cc2)cc1 [Compound 5e, 2-(4-(Benzyloxy)phenyl)-5-(cyclopentylthio)-1,3,4-oxadiazole]
IC50 (HCT116): 75.6 ± 4.2 µM | IC50 (MCF7): 86.8 ± 4.5 µM | melting point: 91 to 93 °C | IC50 (HePG-2): 59.3 ± 3.4 µM | IC50 (WI-38): 11.7 ± 0.9 µM

CCOC(=O)CSc1nnc(-c2ccc(OCc3ccccc3)cc2)o1 [Compound 5f., Ethyl 2-((5-(4-(benzyloxy)phenyl)-1,3,4-oxadiazol-2-yl)thio)acetate]
IC50 (HCT116): > 100 µM | IC50 (MCF7): > 100 µM | melting point: 100 to 102 °C | IC50 (HePG-2): 91.3 ± 5 µM | IC50 (WI-38): 77.3 ± 3.9 µM

CC(=O)N1N=C(c2ccc(-c3cncnc3)cc2)CC1c1ccc(F)cc1 (stereo not shown) [V]
EGFR inhibition rate (EGFR; 0.19 μM concentration): 83% | EGFR inhibition rate (EGFR; 50 μM concentration): 82%

Nc1ccccc1-c1nnc(SCc2ccccc2)o1 [III]
IC50 (EGFR): 1.51 µM

COc1cc2ncnc(Nc3ccc(F)c(Cl)c3)c2cc1OCCCN1CCOCC1 [Gefitinib, reference compound]
ROS (HepG-2 cells [1]): 260 ± 14.7 pg/mL | ROS (HepG-2 cells [1]; listed as gefitinib): 260 pg/mL

COc1ccc(C2CC(c3ccc(OCc4ccccc4)cc3)=NN2)cc1OC (stereo not shown) [Compound 10c, 3-(4-(Benzyloxy)phenyl)-5-(3,4-dimethoxyphenyl)-4,5-dihydro-1H-pyrazole]
IC50 (HCT116): 5.55 ± 0.3 µM | IC50 (MCF7): 2.86 ± 0.1 µM | melting point: 128 to 130 °C | IC50 (EGFR-TK): 0.27 ± 0.01 µM | IC50 (HePG-2): 1.82 ± 0.1 µM | IC50 (WI-38): 41.2 ± 2.4 µM | IC50 (HCT116, HepG-2 and MCF7): 1.82 to 5.55 µM

COc1ccc(C2CC(c3ccc(OCc4ccccc4)cc3)=NN2C(C)=O)cc1OC (stereo not shown) [Compound 9c, 1-(3-(4-(Benzyloxy)phenyl)-5-(3,4-dimethoxyphenyl)-4,5-dihydro-1H-pyrazol-1-yl)ethan-1-one]
IC50 (HCT116): 16.2 ± 1.2 µM | IC50 (MCF7): 8.53 ± 0.6 µM | melting point: 85 to 87 °C | IC50 (HePG-2): 12.2 ± 0.9 µM | IC50 (WI-38): 49.6 ± 2.8 µM

Brc1cccc(C2CC(c3ccc(OCc4ccccc4)cc3)=NN2)c1 (stereo not shown) [Compound 10a, 3-(4-(Benzyloxy)phenyl)-5-(3-bromophenyl)-4,5-dihydro-1H-pyrazole]
IC50 (HCT116): 9.94 ± 0.8 µM | IC50 (MCF7): 8.11 ± 0.6 µM | melting point: 86 to 88 °C | IC50 (EGFR-TK): 0.7 ± 0.03 µM | IC50 (HePG-2): 6.32 ± 0.4 µM | IC50 (WI-38): 62.3 ± 3.4 µM

Clc1ccc(CSc2nnc(-c3ccc(OCc4ccccc4)cc3)o2)cc1 [Compound 5b, 2-(4-(Benzyloxy)phenyl)-5-((4-chlorobenzyl)thio)-1,3,4-oxadiazole]
IC50 (HCT116): 73.2 ± 4.2 µM | IC50 (MCF7): 84.3 ± 4.4 µM | melting point: 125 to 127 °C | IC50 (HePG-2): 38.1 ± 2.2 µM | IC50 (WI-38): 13.2 ± 1.1 µM

O=C(CSc1nnc(-c2ccc3nccnc3c2)o1)c1ccc([N+](=O)[O-])cc1 [II]
IC50 (EGFR): 0.95 µM

CC(=O)N1N=C(c2ccc(OCc3ccccc3)cc2)CC1c1cccc([N+](=O)[O-])c1 (stereo not shown) [Compound 9b, 1-(3-(4-(Benzyloxy)phenyl)-5-(3-nitrophenyl)-4,5-dihydro-1H-pyrazol-1-yl)ethan-1-one]
IC50 (HCT116): 10.2 ± 0.9 µM | IC50 (MCF7): 15.2 ± 1.2 µM | melting point: 127 to 129 °C | IC50 (EGFR-TK): 0.2 ± 0.01 µM | IC50 (HePG-2): 7.83 ± 0.5 µM | IC50 (WI-38): 55.9 ± 3.2 µM

CC(=O)N1N=C(c2ccc(OCc3ccccc3)cc2)CC1c1cccc(Br)c1 (stereo not shown) [Compound 9a, 1-(3-(4-(Benzyloxy)phenyl)-5-(3-bromophenyl)-4,5-dihydro-1H-pyrazol-1-yl)ethan-1-one]
IC50 (HCT116): 55.3 ± 3.1 µM | IC50 (MCF7): 46.1 ± 2.5 µM | melting point: 93 to 95 °C | IC50 (HePG-2): 32.6 ± 2.1 µM | IC50 (WI-38): 85.1 ± 4.1 µM

O=[N+]([O-])c1cccc(C2CC(c3ccc(OCc4ccccc4)cc3)=NN2)c1 (stereo not shown) [Compound 10b, 3-(4-(Benzyloxy)phenyl)-5-(3-nitrophenyl)-4,5-dihydro-1H-pyrazole]
IC50 (HCT116): 8.73 ± 0.7 µM | IC50 (MCF7): 5.97 ± 0.3 µM | melting point: 108 to 110 °C | IC50 (EGFR-TK): 0.16 µM | IC50 (HePG-2): 3.98 ± 0.2 µM | IC50 (WI-38): 37.9 ± 2.3 µM

c1ccc(COc2ccc(-c3nnc(SCc4ccccc4)o3)cc2)cc1 [Compound 5a, 2-(4-(Benzyloxy)phenyl)-5-(benzylthio)-1,3,4-oxadiazole]
IC50 (HCT116): 64.4 ± 3.7 µM | IC50 (MCF7): 78.5 ± 4.1 µM | Comment (cell cycle arrest phase) (HepG-2 cells [2]; HepG-2, 24 h): arrested the cell cycle on HepG-2 at a G1/S phase; also recorded: cell cycle arrest at G1/S phase; also recorded: cell growth arrest at G1/S | %G2/M (HepG-2 cells [2]; HepG-2, IC50 concentration, 24 h, untreated control 17.05): 6.64% | %S (HepG-2 cells [2]; HepG-2, IC50 concentration, 24 h, untreated control 37.09): 41.03% | %G0-G1 (HepG-2 cells [2]; HepG-2, IC50 concentration, 24 h, untreated control 45.86): 52.33% | early apoptosis, folds over the untreated cells (HepG-2 cells [3]): 41.72 folds | total apoptosis, folds over the untreated cells (HepG-2 cells [3]): 14.57 folds | late apoptosis (Q2) (HepG-2 cells [3]; untreated 0.16%): 11.89% | early apoptosis (Q4) (HepG-2 cells [3]; untreated 0.47%): 19.61% | RT-PCR Fold Change Bax [4]: 4.95 fold | RT-PCR Fold Change Casp. 6 [4]: 6.67 fold | RT-PCR Fold Change Casp. 7 [4]: 7.57 fold | RT-PCR Fold Change Casp. 9 [4]: 4.23 fold | RT-PCR Fold Change Cyto c [4]: 3.82 fold | ROS (HepG-2 cells [1]): 247.8 pg/mL and 247.8 ± 31.1 pg/mL | ROS Fold (HepG-2 cells [1]; HepG-2, versus control = 1): 2.34 fold | IC50 (HER2): 0.72 ± 0.028 µM | IC50 (HER3): 0.18 ± 0.006 µM | IC50 (HER4): 0.37 ± 0.015 µM | IC50 (EGFR-TK): 0.09 µM | IC50 (HePG-2): 35.6 ± 2.2 µM | IC50 (WI-38): 53.9 ± 3 µM

COc1cccc2c1C(=O)c1c(O)c3c(c(O)c1C2=O)C[C@@](O)(C(=O)CO)C[C@@H]3O[C@H]1C[C@H](N)[C@H](O)[C@H](C)O1 [DOX, Doxorubicin, reference compound]
IC50 (HePG-2): 4.5 ± 0.2 µM
